Experimental data: patent publication US9186381B2, “Medicament for liver regeneration and for treatment of liver failure” (Helmholtz Zentrum Fuer Infektionsforschung GmbH, priority 2011, dated 2015)

How the values were obtained:
purified MKK4 protein = molecular target: T1, purified MKK4 protein (Homo sapiens, UniProt P45985); experiment: in vitro MKK4 kinase assay, phosphorylation of substrate JNK1a1 with 32P-ATP; format: biochemical; conditions: for remaining activity at 50 µM: small inhibitory compound final concentration 50 μM, 32P-gATP approx. 10 μM, value is remaining activity, read-out: Inhibition, relative activity of MKK4 compared to control (without additional compound) (%)
T1 construct: made in house
T1 sequence (P45985 1-399): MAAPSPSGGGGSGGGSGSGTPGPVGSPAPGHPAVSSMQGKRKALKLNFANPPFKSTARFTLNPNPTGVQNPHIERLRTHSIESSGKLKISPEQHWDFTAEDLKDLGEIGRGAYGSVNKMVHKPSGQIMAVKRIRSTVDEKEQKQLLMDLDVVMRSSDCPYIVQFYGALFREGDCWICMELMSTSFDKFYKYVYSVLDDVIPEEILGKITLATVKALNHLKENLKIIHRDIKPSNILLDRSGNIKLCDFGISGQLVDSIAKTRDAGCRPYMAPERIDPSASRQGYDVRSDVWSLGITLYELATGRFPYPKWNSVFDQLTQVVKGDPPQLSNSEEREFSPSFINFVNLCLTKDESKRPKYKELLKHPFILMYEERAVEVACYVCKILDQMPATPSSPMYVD
Experimental: The inhibitory effect of compounds against MKK4 was analysed in an in vitro assay using purified MKK4 protein, e.g. obtained from a cell line that was genetically manipulated to over-express MKK4 from an expression cassette containing the nucleotide sequence SEQ ID NO: 1204 as a coding sequence and affinity purification using e.g. an antibody directed against MKK4 protein.
In the assay, purified active MKK4 protein was incubated with its substrate JNK1a1 and ^32P-labelled gATP (5 μCi, approx. 10 μM), without additional active compound, with the small inhibitory compound, or with Genistein as a positive control. For the assay, kinase assay buffer (20 mM HEPES pH 7.5; 10 mM MgCl2; 1 mg/ml BSA; 1 mM Na3VO4; 1 mM DTT) was used. An inhibitory effect of the small inhibitory compound (final concentration 50 μM) was detected as a reduction of the phosphorylation activity of MKK4 protein on its substrate JNK1a1 by measuring the amount of radioactive (^32P) phosphate in JNK1a1. Phosphorylation of JNK1a1 was measured in the presence of 2 ml scintillation cocktail per sample by using a scintillation counter (Wallac, Liquid Scintillation Counter). In this assay, Genistein gave an inhibition to approx. 80% activity compared to the assay without additional active compound.

MKK4 in the liver = experiment: inhibition of MKK4 in vivo by small inhibitors administered to mice; conditions: dosage efficient for in vivo inactivation of MKK4
Experimental: In the alternative to inhibition of MKK4 activity in liver tissue by inhibitory RNA, SP600125, myricitine, Genistein, or PD98059 were used for inactivating MKK4 in the liver. Generally, SP600125, myricitine, Genistein, or PD98059 were administered to mice at a dosage efficient for in vivo inactivation of MKK4. Preferably, the dosage was efficient to inactivate at least 80%, more preferably at least 90 or 95% of mean in vivo MKK4 activity.

Structure (SMILES) | remaining activity at 50 µM (purified MKK4 protein) [%] | further results
O=C(O)c1ccc2c3c(ncnc13)-c1ccccc1C2=O [BAS00368055, 7-oxobenzo[e]perimidine-4-carboxylic acid] | 66.2 | 
Cn1c(O)c(C(=O)Nc2ccncc2)c(=O)c2ccccc21 [BAS00525963, 2-hydroxy-1-methyl-4-oxo-N-pyridin-4-ylquinoline-3-carboxamide] | 72.6 | 
O=[N+]([O-])c1cccc(/C=N/c2ccc3[nH]ncc3c2)c1O [BAS00697444, 2-(1H-indazol-5-yliminomethyl)-6-nitrophenolate] | 79 | 
COc1cc([N+](=O)[O-])cc(/C=N/c2ccc3[nH]ncc3c2)c1O [BAS00697462, 2-(1H-indazol-5-yliminomethyl)-6-methoxy-4-nitrophenolate] | 71.1 | 
COc1nc(Oc2cccc(/C=C(\C#N)c3nn(CCO)c(N)c3C#N)c2)nc(N2CCCCC2)n1 [BAS00896568, 5-amino-3-[(Z)-1-cyano-2-[3-[(4-methoxy-6-piperidin-1-yl-1,3,5-triazin-2-yl)oxy]phenyl]ethenyl]-1-(2-hydroxyethyl)pyrazole-4-carbonitrile] | 58.4 | 
O=c1c(-c2ccc(O)cc2)coc2cc(O)cc(O)c12 [Genistein] |  | inhibition to % activity compared to the assay without additional active compound (purified MKK4 protein; positive control, remaining activity): approx. 80%; liver regeneration (MKK4 in the liver): significant increase in liver regeneration; proliferation (MKK4 in the liver): increase in proliferation; protection against induced apoptosis (MKK4 in the liver): protection against induced apoptosis
COc1cccc(-c2cc(=O)c3ccccc3o2)c1N [PD98059] |  | liver regeneration (MKK4 in the liver): significant increase in liver regeneration; proliferation (MKK4 in the liver): increase in proliferation; protection against induced apoptosis (MKK4 in the liver): protection against induced apoptosis
Cc1ccc(NC(=O)c2cccc(N(C)C)c2)cc1NC(=O)c1ccc(O)cc1 [ZM 336372, 3-(Dimethylamino)-N-[3-[(4-hydroxybenzoyl)-amino]-4-methylphenyl]benzamide, reference compound] | 54.2 | 
O=c1c(O)c(-c2cc(O)c(O)c(O)c2)oc2cc(O)cc(O)c12 [myricitine] |  | liver regeneration (MKK4 in the liver): significant increase in liver regeneration; proliferation (MKK4 in the liver): increase in proliferation; protection against induced apoptosis (MKK4 in the liver): protection against induced apoptosis

Second part, led by results:

remaining activity at 50 µM (purified MKK4 protein) [%] | Structure (SMILES) | further results
47.8 | Cc1n[nH]c(C)c1CCc1cc(O)n2ncc(C(=O)Nc3ccccc3)c2n1 [SYN22174524, 5-[2-(3,5-dimethyl-1H-pyrazol-4-yl)ethyl]-7-oxo-N-phenyl-1H-pyrazolo[1,5-a]pyrimidine-3-carboxamide] | 
41.5 | Cc1n[nH]c(C)c1CCc1cc(=O)n2ncc(-c3ccc(F)cc3)c2[nH]1 [SYN22174787, 5-[2-(3,5-dimethyl-1H-pyrazol-4-yl)ethyl]-3-(4-fluorophenyl)-1H-pyrazolo[1,5-a]pyrimidin-7-one] | 
55.5 | Cc1ccc(-c2cnn3c(=O)cc(CCc4c(C)n[nH]c4C)[nH]c23)cc1 [SYN22175977, 5-[2-(3,5-dimethyl-1H-pyrazol-4-yl)ethyl]-3-(4-methylphenyl)-1H-pyrazolo[1,5-a]pyrimidin-7-one] | 
59.1 | COCc1nn2c(=O)cc(CCc3c(C)n[nH]c3C)[nH]c2c1-c1ccc(Cl)cc1 [SYN22176267, 3-(4-chlorophenyl)-5-[2-(3,5-dimethyl-1H-pyrazol-4-yl)ethyl]-2-(methoxymethyl)-1H-pyrazolo[1,5-a]pyrimidin-7-one] | 
49.9 | COCc1nn2c(=O)cc(CCc3c(C)n[nH]c3C)[nH]c2c1-c1ccc(C)cc1 [SYN22176367, 5-[2-(3,5-dimethyl-1H-pyrazol-4-yl)ethyl]-2-(methoxymethyl)-3-(4-methylphenyl)-1H-pyrazolo[1,5-a]pyrimidin-7-one] | 
54.9 | COc1cccc(-c2nn3c(=O)cc(CCc4c(C)n[nH]c4C)[nH]c3c2C)c1 [SYN22176842, 5-[2-(3,5-dimethyl-1H-pyrazol-4-yl)ethyl]-2-(3-methoxyphenyl)-3-methyl-pyrazolo[5,1-b]pyrimidin-7-ol] | 
58.2 | COc1ccccc1-c1nn2c(=O)cc(CCc3c(C)n[nH]c3C)[nH]c2c1C [SYN22176990, 5-[2-(3,5-dimethyl-1H-pyrazol-4-yl)ethyl]-2-(2-methoxyphenyl)-3-methyl-pyrazolo[5,1-b]pyrimidin-7-ol] | 
56.3 | Cc1n[nH]c(C)c1CCc1cc(=O)n2nc(C)c(-c3ccc(Cl)cc3)c2[nH]1 [SYN22177890, 3-(4-chlorophenyl)-5-[2-(3,5-dimethyl-1H-pyrazol-4-yl)ethyl]-2-methyl-1H-pyrazolo[1,5-a]pyrimidin-7-one] | 
